Measured values: patent US20250281497A1, “FUSED AMINO PYRIMIDINE COMPOUNDS FOR TREATMENT OF SEIZURE DISORDERS” (Ovid Therapeutics Inc., priority 2024, published 2025)

Key:
KCC2 [1] = target: T1, KCC2 (Homo sapiens, UniProt Q9H2X9); assay: Cellular thermal shift assay (CETSA) in transfected HEK-293 cells; type: binding; details: 30 μM, 90 min, heated 37-58° C.
T1 construct: expressed in transfected cells; host or cells: HEK-293 (ATCC CRL-1573)
T1 sequence (Q9H2X9 1-1116 isoform Q9H2X9-2): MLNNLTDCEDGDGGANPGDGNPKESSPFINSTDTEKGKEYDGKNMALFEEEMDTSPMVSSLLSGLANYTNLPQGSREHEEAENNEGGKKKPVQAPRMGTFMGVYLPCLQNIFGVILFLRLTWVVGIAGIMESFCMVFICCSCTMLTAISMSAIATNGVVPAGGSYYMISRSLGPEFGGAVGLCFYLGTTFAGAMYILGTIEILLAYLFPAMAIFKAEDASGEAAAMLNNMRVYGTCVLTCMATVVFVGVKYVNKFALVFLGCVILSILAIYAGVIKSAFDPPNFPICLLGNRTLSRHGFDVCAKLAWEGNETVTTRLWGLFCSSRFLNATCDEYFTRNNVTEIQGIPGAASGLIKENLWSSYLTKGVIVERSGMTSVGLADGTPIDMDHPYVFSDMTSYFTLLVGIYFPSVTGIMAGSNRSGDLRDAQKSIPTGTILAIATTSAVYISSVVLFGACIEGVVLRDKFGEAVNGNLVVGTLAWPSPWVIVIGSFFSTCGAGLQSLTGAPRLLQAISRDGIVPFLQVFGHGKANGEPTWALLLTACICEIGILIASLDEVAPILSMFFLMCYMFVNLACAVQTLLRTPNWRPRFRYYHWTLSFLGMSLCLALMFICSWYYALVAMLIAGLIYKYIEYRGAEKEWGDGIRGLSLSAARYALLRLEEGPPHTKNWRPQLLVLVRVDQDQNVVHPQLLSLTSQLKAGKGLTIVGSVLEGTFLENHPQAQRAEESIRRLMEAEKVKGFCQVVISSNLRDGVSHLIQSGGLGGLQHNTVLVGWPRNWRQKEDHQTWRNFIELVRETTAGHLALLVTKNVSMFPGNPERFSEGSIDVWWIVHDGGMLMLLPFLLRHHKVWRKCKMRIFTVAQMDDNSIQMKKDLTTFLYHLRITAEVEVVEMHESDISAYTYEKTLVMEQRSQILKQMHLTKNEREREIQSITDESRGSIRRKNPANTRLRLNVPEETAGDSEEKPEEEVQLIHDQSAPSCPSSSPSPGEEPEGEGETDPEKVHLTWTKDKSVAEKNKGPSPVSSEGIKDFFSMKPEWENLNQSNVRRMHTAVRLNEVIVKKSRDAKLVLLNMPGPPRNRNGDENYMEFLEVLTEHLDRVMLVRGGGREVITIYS
Method: Determining if compounds in SSA directly interact with KCC2. This was tested using a cellular thermal shift assay (CETSA), which measures the ability of a drug to modify the thermal stability of its target in whole cells (Kawatkar et al., ACS Chem. Biol. 14, 1913-1920 (2019); Martinez et al., Sci Rep 8, 9472 (2018)).
2×10^6 transfected HEK-293 cells were incubated with 30 μM drug or vehicle for 90 min at 37° C. and then heated from 37-58° C. for 5 min. Cells were rapidly chilled to 25° C. and NP40 was added to a final concentration […] to snap freezing in liquid nitrogen. Following 5 freeze/thaw cycles lysates were centrifuged at 12,000×g to remove denatured proteins and associated cell debris.
Aliquots of HEK-293 cells expressing KCC2 were exposed to 30 μM SSA, heated from 37-55° C. The remaining level of soluble native KCC2 at each temperature was measured by immunoblotting and normalized to the level seen at 37° C. which was given a value of 1. […] This panel included protein kinase C isoforms, OSR1, SPAK (STK39) and with-no-lysine kinases (WNK), all of which phosphorylate KCC2 on multiple residues to indirectly modify its activity (Kahle et al., 2013, supra; Smalley et al., 2020, supra).

KCC2 [2] = target: T1, KCC2; assay: Surface biotinylation of KCC2 in HEK-293 cells; type: cell-based; details: 15 min
Method: Cell Culture and biotinylation. HEK-293 cells were purchased from ATCC (CRL-1573) and transfected with human KCC2 and GFP expression plasmids using Lipofectamine 2000. Cells were utilized for experimentation 48-72h following transfection. Cells were biotinylated at 4° C. using NHS-Biotin. Following lysis and purification on immobilized avidin beads, cell surface and total fractions were subject to immunoblotting as outlined previously (Conway et al., 2017, supra).
The reliability of the biotinylation procedure was assessed via immunoblotting with antibodies against the cytosolic protein actin. Actin was present in the total lysates but was absent from the surface fractions (FIG. 2C).

hippocampal neurons = assay: Gramicidin perforated patch clamp, EGABA in hippocampal neurons; type: cell-based, Sprague Dawley; details: 300 nM
Method: Neuronal Cultures. Hippocampal neurons were prepared from Sprague Dawley E18 embryos and plated at 450,000 per dish and maintained at 37° C. in a humidified 5% CO2 incubator for 10-25 days before experimentation (Lee et al., Nat. Neurosci. 14, 736-743 (2011)).
At this developmental stage, GABAAR receptor activation leads to hyperpolarization, a phenomenon critically dependent upon KCC2 (Kontou et al., J Biol Chem, 100364 (2021)).
Neuronal Patch clamp assays. Neuronal cell culture recordings were performed in bath saline at 34° C. For gramicidin perforated-patch experiments, pipettes contained (in mM): 140 KCl and 10 HEPES, pH 7.4 KOH. For whole-cell experiments, pipettes contained (in mM): 115 K-meth-SO^4, 30 KCl, 2 Mg-ATP, 4 Na-ATP, 0.4 Na-GTP, and 10 HEPES, pH 7.4 KOH. Bath saline contained the following (in mM): 140 NaCl, 2.5 KCl, 2.5 CaCl2, 2.5 MgCl2, 10 HEPES, and 11 glucose, pH 7.4 NaOH (Kontou et at, 2021, supra). All compound solutions were applied to cells using a three-barreled 700 μm pipe positioned just above the cell (Warner Instruments). […] All voltages from whole-cell experiments were corrected offline using a calculated liquid junction potential value (13.6 mV) in Clampex (Molecular Devices). For gramicidin perforated-patch experiments, intracellular Cl^− values were back-calculated using measured EGABA values and the Nernst equation: […]

With `C[C@@H]1CN(c2nc3c(c(Nc4ccc(C5CCCCC5)cc4)n2)COC3)CCO1` [Compound A, (R)—N-(4-cyclohexylphenyl)-2-(2-methylmorpholino)-5,7-dihydrofuro[3,4-d]pyrimidin-4-amine] the “thermal stability of KCC2 / direct binding (CETSA)” value (KCC2 [1]) was “capable of directly binding to KCC2”, the “KCC2 on the plasma membrane (surface/total)” value (KCC2 [2]; 0.3 μM) was 94.5±8.4 % of control and the “KCC2 on the plasma membrane (surface/total)” value (KCC2 [2]; 3 μM) was 104.7±8.4 % of control. For the same molecule, the “reduction in Cl−” value (hippocampal neurons; 15 min, from EGABA by Nernst equation) was 2.2 ± 0.6 mM and the “EGABA at 15 min” value (hippocampal neurons; from −75±3.1 at 0 min, bumetanide and TTX present) was −85.1±4.2 mV.
